In patent publication US5763433A, “Pharmaceutical compositions containing 3-beta-hydroxylated 6,7-substituted steroid derivatives, and use thereof” (Conservatoire National des Arts et Metiers, priority 1992, dated 1998):

Columns and labels:
antiviral response = conditions: 20 mg/kg to 320 mg/kg s.c. or 0.4% by weight of the diet; cited from earlier work
anti-lysozyme IgG = test: Immunoenzymatic measurement of anti-lysozyme IgG in serum of mice immunized against lysozyme; assay type: in vivo, C57BL/6 mice; conditions: for Optical densities +/- SD, anti-lysozyme IgG, 1/180 serial dilution: serum 1/180; for Optical densities +/- SD, anti-lysozyme IgG, 1/180 serial dilution / Optical densities +/- SD, anti-lysozyme IgG, 1/540 serial dilution / Optical densities +/- SD, anti-lysozyme IgG, first serial dilution: s.c., mean of 5 mice; for Optical densities +/- SD, anti-lysozyme IgG, 1/180 serial dilution / Optical densities +/- SD, anti-lysozyme IgG, 1/540 serial dilution: doses and timing as E1; for Optical densities +/- SD, anti-lysozyme IgG, 1/540 serial dilution: serum 1/540; for Optical densities +/- SD, anti-lysozyme IgG, first serial dilution: serum dilution not given, PREG 0,5 g/kg, DHEA 1,0 g/kg, ADIOL 125 mg/kg 1 hour before lysozyme, 7-hydroxy-PREG and 7-hydroxy-DHEA 6,25 mg/kg, 7β-hydroxy-DHEA 50,0 mg/kg, 7- and 7β-hydroxy-ADIOL 25,0 mg/kg with lysozyme; for Effect on serum concentrations of anti-lysozyme IgG (in words): steroid administered s.c. at least one hour prior to the injection of lysozyme; for Effect on serum anti-lysozyme IgG (in words): steroid administered s.c. simultaneously with lysozyme
Method: The immunity effector effect was tested by subcutaneous injection concomitantly with that of an antigen and the 7-alpha- or 7-beta-hydroxylated derivative into C57BL/6 mice according to a standard immunization protocol (Methods in Enzymology (1980), vol. 70).
The effect of the compound as cellular immunity effector is measured by the quantity of circulating IgG directed against the antigen 21 days after the injection and after a booster injection 14 days layer.
Thirty five groups of five 6-weeks old C57BL/6 mice are given a subcutaneous injection of 200 ug of hen egg white lysozyme on days one and fourteen of the immunization protocol. Solutions of DHEA (Sigma D-4500) in dimethyl sulfoxide (DMSO) are injected in the same manner at variable times before the first injection of lysozyme. Amounts ranging from 0.25 and 2 g/kg are used. Ten other groups of 5 mice are given a subcutaneous injection of 6.25 to 50 mg/kg of 7-alpha-hydroxy-DHEA or 7-beta-hydroxy-DHEA dissolved in DMSO at the same time as the first lysozyme injection. Two groups receive only DMSO with lysozyme (controls). The blanks correspond to one group of 5 mice and are not given an injection.
Three weeks after the first injections the animals, then aged 9 weeks, are decapitated. The blood of each animal is collected and the presence of anti-lysozyme G immunoglobulins (IgG) is measured in serial dilutions of the sera by an immunoenzymatic titration using goat anti-mouse (Fc) IgG immunoglobulin labelled with peroxidase.
A group of 5 mice is given the subcutaneous injection of 125 mg/kg of 5-androstene-3-beta, 17-beta-diol (ADIOL) one hour prior to the first injection of lysozyme, and two groups of 5 mice are treated with 25 mg/kg of 7-alpha-hydroxy-ADIOL or 7-beta-hydroxy-ADIOL at the time of the first lysozyme injection.
DHEA or PREG or ADIOL is injected subcutaneously 1 hour before the first lysozyme injection. The 7-hydroxylated derivatives are administered simultaneously with the lysozyme injection. The immunoenzymatic measurement of the anti-lysozyme IgGs in the serial dilutions of the sera of each animal makes use of goat anti-mouse (Fc) IgG immunoglobulin, labelled with peroxidase in 96-well plates treated with lysozyme. The mean value of the optical densities measured in each group of 5 mice is calculated as well as the standard deviation (SD).

[1] = system: cytosolic or nuclear receptors specific for 7-alpha-hydroxy-DHEA; test: Search for cytosolic or nuclear receptors specific for 7-alpha-hydroxy-DHEA (studies not reported); assay type: binding; conditions: studies not reported here
[2] = target: T1, nuclear binding of tritiated dexamethazone (glucocorticoid receptors) (Mus musculus, UniProt P06537); test: Displacement of the nuclear binding of tritiated dexamethazone in isolated liver, brain, thymus and spleen cells; design: species or system C57BL/6 mouse
T1 construct: The liver, brain, spleen and thymus are excised and the cells of each organ are recovered; from tissue; host or cells: isolated cells of liver, brain, spleen and thymus of metyrapone-treated C57BL/6 mice
T1 sequence (P06537 1-792): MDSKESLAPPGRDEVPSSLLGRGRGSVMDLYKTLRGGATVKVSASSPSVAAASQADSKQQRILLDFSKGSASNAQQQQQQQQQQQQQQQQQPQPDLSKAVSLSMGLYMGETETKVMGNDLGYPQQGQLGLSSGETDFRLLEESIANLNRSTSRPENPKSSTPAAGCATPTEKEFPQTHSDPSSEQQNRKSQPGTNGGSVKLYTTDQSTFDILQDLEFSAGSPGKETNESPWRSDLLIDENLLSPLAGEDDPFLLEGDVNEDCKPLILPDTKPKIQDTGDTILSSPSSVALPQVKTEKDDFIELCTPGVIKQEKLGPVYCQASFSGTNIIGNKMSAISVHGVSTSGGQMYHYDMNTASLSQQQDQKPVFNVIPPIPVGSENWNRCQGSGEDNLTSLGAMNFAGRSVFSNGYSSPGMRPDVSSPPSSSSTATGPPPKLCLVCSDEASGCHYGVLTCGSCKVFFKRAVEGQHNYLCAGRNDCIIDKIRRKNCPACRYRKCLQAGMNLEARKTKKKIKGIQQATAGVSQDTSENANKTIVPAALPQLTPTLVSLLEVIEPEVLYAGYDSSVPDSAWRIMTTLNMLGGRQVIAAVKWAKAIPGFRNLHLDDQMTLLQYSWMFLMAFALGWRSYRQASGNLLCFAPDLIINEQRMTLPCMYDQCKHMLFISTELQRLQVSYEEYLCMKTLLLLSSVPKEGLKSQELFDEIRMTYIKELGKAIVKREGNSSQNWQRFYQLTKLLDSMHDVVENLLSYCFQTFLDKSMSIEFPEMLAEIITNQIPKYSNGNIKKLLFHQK
Method: The isolated hepatocytes are incubated for 1 hour at room temperature with increasing concentrations (2-80 nM) of ^3 H-dexamethazone (DEX*). […] The hepatocyte nuclei are then isolated and purified and the radioactivity corresponding to the DEX* still bound is measured and expressed in cpm/10 ug of DNA. The area under the curve DEX* corresponds to zero displacement of the radioactivity. The area under the curve DEX*/DEX which corresponds to the displacement of radioactivity by the same molecule is taken arbitrarily as 100. The areas under the curve obtained with the other steroids makes it possible to calculate by interpolation between the areas zero and 100 their displacement coefficients for the nuclear binding of DEX*.
The mice are anesthetized with ether and bled, then perfused intracardially with physiological serum containing collagenase B (0.03 g/100 ml) for 10 minutes. […] The quantities of cells obtained are estimated on the base of the measurement of the DNA contained in the preparations.
The nuclei are recovered and their radioactive content measured as described by the authors cited above.
The area under the curve of tritiated dexamethazone alone is measured and taken as zero. […] The displacement coefficients found for each of the other steroids are calculated by interpolation on this scale, each result being the mean of a triplicate determination.

[3] = cited from earlier work
[4] = system: human viruses Edwards CVB4 or HSV2; conditions: s.c., of the order of 1 g/kg 4 hours prior to viral infection; also oral 0.4% in the diet for 16 weeks; cited from earlier work
AIDS = conditions: 400 to 2500 mg/day; cited from earlier work

Row | Compound | Antiviral response (antiviral response) | Optical densities +/- SD, anti-lysozyme IgG, 1/180 serial dilution (anti-lysozyme IgG) | Optical densities +/- SD, anti-lysozyme IgG, 1/540 serial dilution (anti-lysozyme IgG) | Optical densities +/- SD, anti-lysozyme IgG, first serial dilution (anti-lysozyme IgG) | Effect on serum concentrations of anti-lysozyme IgG (in words) (anti-lysozyme IgG) | Effect on serum anti-lysozyme IgG (in words) (anti-lysozyme IgG; listed as 7-alpha-OH-DHEA) | Effect on serum anti-lysozyme IgG (in words) (anti-lysozyme IgG; listed as 7-alpha-hydroxy-DHEA) | Existence of specific cytosolic or nuclear receptors [1] | Displacement of tritiated dexamethazone from nuclear binding / anti-glucocorticoid action (in words) ([2]; 100-fold excess of steroid) | Displacement coefficient for nuclear binding of tritiated dexamethazone, Brain ([2]; brain cells, 100-fold excess of steroid, no competitor = zero, unlabelled dexamethazone = 100, mean of triplicate) | Displacement coefficient for nuclear binding of tritiated dexamethazone, Liver ([2]; liver cells, 100-fold excess of steroid over 2-80 nM 3H-dexamethazone, no competitor = zero, unlabelled dexamethazone = 100, mean of triplicate, 60 min) | Displacement coefficient for nuclear binding of tritiated dexamethazone, Spleen ([2]; spleen cells, 100-fold excess of steroid, no competitor = zero, unlabelled dexamethazone = 100, mean of triplicate) | Displacement coefficient for nuclear binding of tritiated dexamethazone, Thymus ([2]; thymus cells, 100-fold excess of steroid, no competitor = zero, unlabelled dexamethazone = 100, mean of triplicate) | Solubility in aqueous solutions [3] | Survival of infected mice [4] | Effect on patients suffering from AIDS (AIDS)
1 | C[C@]12CC[C@H]3[C@@H](CC=C4C[C@@H](O)CC[C@@]43C)[C@@H]1CC[C@@H]2O [ADIOL, 5-androstene-3-beta, 17-beta-diol, reference compound] | enhanced antiviral response | 0,37 ± 0,06 | 0,22 ± 0,03 | 0,26 ± 0,09 | increase the serum concentrations of anti-lysozyme IgG |  |  |  |  |  |  |  |  |  |  | 
2 | C[C@]12CC[C@H](O)CC1=C[C@@H](O)[C@@H]1[C@@H]2CC[C@]2(C)C(=O)CC[C@@H]12 [7-hydroxy-DHEA, 3-beta, 7-alpha-dihydroxy-androst-5-en-17-one] |  | 0,74 ± 0,21 | 0,43 ± 0,12 | 1,21 ± 0,37 |  | particularly marked effect of the low doses | much more active than its 7-beta epimer | do not exist | more effective that the 7-beta epimer | 49 | 95 | 91 | 85 |  |  | 
3 | C[C@]12CC[C@H](O)CC1=CC[C@@H]1[C@@H]2CC[C@]2(C)C(=O)CC[C@@H]12 [DHEA, 3-beta-hydroxy-5-androsten-17-one, reference compound] |  | 0,26 ± 0,04 | 0,14 ± 0,02 | 0,40 ± 0,06 | increase the serum concentrations of anti-lysozyme IgG |  |  |  |  |  |  |  |  | low solubility | enables the survival of mice infected by the human viruses Edwards CVB4 or HSV2 to be increased | positive effect
